This is an account of results in the NIST ThermoML archive (doi:10.1016/j.jct.2012.03.015).

Structures are written as SMILES. Numbers after ± are expanded uncertainties.

One series can be described thus: activity coefficient (dimensionless); of the first substance listed, at infinite dilution; xn = mol fraction of the nth substance listed. The note with it: 318.15 K; 101 kPa; Liquid; Chromatography; x1 = 0.
`O` [water] + COCC[N+]1(C)CCCC1.O=S(=O)([N-]S(=O)(=O)C(F)(F)F)C(F)(F)F: the activity coefficient worked out at 3.15 ± 0.21.
As to `C1CCCCCC1` [cycloheptane] + COCC[N+]1(C)CCCC1.O=S(=O)([N-]S(=O)(=O)C(F)(F)F)C(F)(F)F, the activity coefficient came to 15.3 ± 1.
Take `CCOC(C)(C)C` [2-ethoxy-2-methylpropane] + COCC[N+]1(C)CCCC1.O=S(=O)([N-]S(=O)(=O)C(F)(F)F)C(F)(F)F: the activity coefficient came out at 6.31 ± 0.43.
The same measure, in the same setting: the same measure for `C#CCCCC` [1-hexyne] + COCC[N+]1(C)CCCC1.O=S(=O)([N-]S(=O)(=O)C(F)(F)F)C(F)(F)F: 3.29 ± 0.22; for `CCCCCC` [hexane] + COCC[N+]1(C)CCCC1.O=S(=O)([N-]S(=O)(=O)C(F)(F)F)C(F)(F)F: 19 ± 1.3; for `c1ccncc1` [pyridine] + COCC[N+]1(C)CCCC1.O=S(=O)([N-]S(=O)(=O)C(F)(F)F)C(F)(F)F: 0.602 ± 0.042.
For the compound `CC1CCCCC1` [methylcyclohexane] + COCC[N+]1(C)CCCC1.O=S(=O)([N-]S(=O)(=O)C(F)(F)F)C(F)(F)F, the activity coefficient stood at 15.4 ± 1.1.
On to `C=CCCC` [1-pentene] + COCC[N+]1(C)CCCC1.O=S(=O)([N-]S(=O)(=O)C(F)(F)F)C(F)(F)F, for which the activity coefficient was found to be 6.65 ± 0.45.
On the same count and under the same terms, the same measure for `CCC(=O)CC` [pentan-3-one] + COCC[N+]1(C)CCCC1.O=S(=O)([N-]S(=O)(=O)C(F)(F)F)C(F)(F)F: 0.831 ± 0.054; for `CC(C)OC(C)C` [diisopropyl ether] + COCC[N+]1(C)CCCC1.O=S(=O)([N-]S(=O)(=O)C(F)(F)F)C(F)(F)F: 6.63 ± 0.45.

Staying with this series, now noted: 328.15 K; 101 kPa; Liquid; Chromatography; x1 = 0.
On to `O` [water] + COCC[N+]1(C)CCCC1.O=S(=O)([N-]S(=O)(=O)C(F)(F)F)C(F)(F)F, for which the activity coefficient is 2.81 ± 0.19.
On to `C1CCCCCC1` [cycloheptane] + COCC[N+]1(C)CCCC1.O=S(=O)([N-]S(=O)(=O)C(F)(F)F)C(F)(F)F, for which the activity coefficient is 14.1 ± 1.
On the same count and under the same terms, the same measure for `CCOC(C)(C)C` [2-ethoxy-2-methylpropane] + COCC[N+]1(C)CCCC1.O=S(=O)([N-]S(=O)(=O)C(F)(F)F)C(F)(F)F: 6.19 ± 0.42; for `C#CCCCC` [1-hexyne] + COCC[N+]1(C)CCCC1.O=S(=O)([N-]S(=O)(=O)C(F)(F)F)C(F)(F)F: 3.29 ± 0.22.
Turning to `CCCCCC` [hexane] + COCC[N+]1(C)CCCC1.O=S(=O)([N-]S(=O)(=O)C(F)(F)F)C(F)(F)F, the activity coefficient worked out at 17.8 ± 1.2.
The same measure, in the same setting: with `c1ccncc1` [pyridine] + COCC[N+]1(C)CCCC1.O=S(=O)([N-]S(=O)(=O)C(F)(F)F)C(F)(F)F the figure was 0.61 ± 0.043; with `CC1CCCCC1` [methylcyclohexane] + COCC[N+]1(C)CCCC1.O=S(=O)([N-]S(=O)(=O)C(F)(F)F)C(F)(F)F, 14.4 ± 1.
Regarding `C=CCCC` [1-pentene] + COCC[N+]1(C)CCCC1.O=S(=O)([N-]S(=O)(=O)C(F)(F)F)C(F)(F)F, the activity coefficient was 6.5 ± 0.44.
On to `CCC(=O)CC` [pentan-3-one] + COCC[N+]1(C)CCCC1.O=S(=O)([N-]S(=O)(=O)C(F)(F)F)C(F)(F)F, for which the activity coefficient is 0.851 ± 0.055.
In the case of `CC(C)OC(C)C` [diisopropyl ether] + COCC[N+]1(C)CCCC1.O=S(=O)([N-]S(=O)(=O)C(F)(F)F)C(F)(F)F, the activity coefficient was determined as 6.55 ± 0.45.

The series is the same for the next values; noted with them: 338.15 K; 101 kPa; Liquid; Chromatography; x1 = 0.
Regarding `O` [water] + COCC[N+]1(C)CCCC1.O=S(=O)([N-]S(=O)(=O)C(F)(F)F)C(F)(F)F, the activity coefficient stood at 2.51 ± 0.17.
The same measure, in the same setting: the same measure for `C1CCCCCC1` [cycloheptane] + COCC[N+]1(C)CCCC1.O=S(=O)([N-]S(=O)(=O)C(F)(F)F)C(F)(F)F: 13.1 ± 0.9.
Still for that read-out and setting: with `CCOC(C)(C)C` [2-ethoxy-2-methylpropane] + COCC[N+]1(C)CCCC1.O=S(=O)([N-]S(=O)(=O)C(F)(F)F)C(F)(F)F the figure was 6.12 ± 0.42.
On the same count and under the same terms, the same measure for `C#CCCCC` [1-hexyne] + COCC[N+]1(C)CCCC1.O=S(=O)([N-]S(=O)(=O)C(F)(F)F)C(F)(F)F: 3.28 ± 0.22; for `CCCCCC` [hexane] + COCC[N+]1(C)CCCC1.O=S(=O)([N-]S(=O)(=O)C(F)(F)F)C(F)(F)F: 16.7 ± 1.1.
As to `c1ccncc1` [pyridine] + COCC[N+]1(C)CCCC1.O=S(=O)([N-]S(=O)(=O)C(F)(F)F)C(F)(F)F, the activity coefficient amounted to 0.618 ± 0.043.
`CC1CCCCC1` [methylcyclohexane] + COCC[N+]1(C)CCCC1.O=S(=O)([N-]S(=O)(=O)C(F)(F)F)C(F)(F)F: the activity coefficient stood at 13.5 ± 0.9.
The same measure, in the same setting: with `C=CCCC` [1-pentene] + COCC[N+]1(C)CCCC1.O=S(=O)([N-]S(=O)(=O)C(F)(F)F)C(F)(F)F the figure was 6.35 ± 0.43.
Same read-out and setting: with `CCC(=O)CC` [pentan-3-one] + COCC[N+]1(C)CCCC1.O=S(=O)([N-]S(=O)(=O)C(F)(F)F)C(F)(F)F the figure was 0.871 ± 0.056; with `CC(C)OC(C)C` [diisopropyl ether] + COCC[N+]1(C)CCCC1.O=S(=O)([N-]S(=O)(=O)C(F)(F)F)C(F)(F)F, 6.46 ± 0.44.

The same series, now with this note: 348.15 K; 101 kPa; Liquid; Chromatography; x1 = 0.
`O` [water] + COCC[N+]1(C)CCCC1.O=S(=O)([N-]S(=O)(=O)C(F)(F)F)C(F)(F)F: the activity coefficient was found to be 2.26 ± 0.15.
The same measure, in the same setting: with `C1CCCCCC1` [cycloheptane] + COCC[N+]1(C)CCCC1.O=S(=O)([N-]S(=O)(=O)C(F)(F)F)C(F)(F)F the figure was 12.3 ± 0.8; with `CCOC(C)(C)C` [2-ethoxy-2-methylpropane] + COCC[N+]1(C)CCCC1.O=S(=O)([N-]S(=O)(=O)C(F)(F)F)C(F)(F)F, 6.03 ± 0.41.
For the compound `C#CCCCC` [1-hexyne] + COCC[N+]1(C)CCCC1.O=S(=O)([N-]S(=O)(=O)C(F)(F)F)C(F)(F)F, the activity coefficient was found to be 3.28 ± 0.22.
Turning to `CCCCCC` [hexane] + COCC[N+]1(C)CCCC1.O=S(=O)([N-]S(=O)(=O)C(F)(F)F)C(F)(F)F, the activity coefficient was found to be 15.9 ± 1.1.
With `c1ccncc1` [pyridine] + COCC[N+]1(C)CCCC1.O=S(=O)([N-]S(=O)(=O)C(F)(F)F)C(F)(F)F, the activity coefficient was determined as 0.625 ± 0.043.
The same measure, in the same setting: with `CC1CCCCC1` [methylcyclohexane] + COCC[N+]1(C)CCCC1.O=S(=O)([N-]S(=O)(=O)C(F)(F)F)C(F)(F)F the figure was 12.7 ± 0.9; with `C=CCCC` [1-pentene] + COCC[N+]1(C)CCCC1.O=S(=O)([N-]S(=O)(=O)C(F)(F)F)C(F)(F)F, 6.17 ± 0.42; with `CCC(=O)CC` [pentan-3-one] + COCC[N+]1(C)CCCC1.O=S(=O)([N-]S(=O)(=O)C(F)(F)F)C(F)(F)F, 0.887 ± 0.056.
On to `CC(C)OC(C)C` [diisopropyl ether] + COCC[N+]1(C)CCCC1.O=S(=O)([N-]S(=O)(=O)C(F)(F)F)C(F)(F)F, for which the activity coefficient turned out to be 6.39 ± 0.44.

The series is the same for the next values; noted with them: 358.15 K; 101 kPa; Liquid; Chromatography; x1 = 0.
For the compound `O` [water] + COCC[N+]1(C)CCCC1.O=S(=O)([N-]S(=O)(=O)C(F)(F)F)C(F)(F)F, the activity coefficient was 2.05 ± 0.14.
On the same count and under the same terms, with `C1CCCCCC1` [cycloheptane] + COCC[N+]1(C)CCCC1.O=S(=O)([N-]S(=O)(=O)C(F)(F)F)C(F)(F)F the figure was 11.5 ± 0.8; with `CCOC(C)(C)C` [2-ethoxy-2-methylpropane] + COCC[N+]1(C)CCCC1.O=S(=O)([N-]S(=O)(=O)C(F)(F)F)C(F)(F)F, 5.94 ± 0.4; with `C#CCCCC` [1-hexyne] + COCC[N+]1(C)CCCC1.O=S(=O)([N-]S(=O)(=O)C(F)(F)F)C(F)(F)F, 3.28 ± 0.22.
Same read-out and setting: the same measure for `CCCCCC` [hexane] + COCC[N+]1(C)CCCC1.O=S(=O)([N-]S(=O)(=O)C(F)(F)F)C(F)(F)F: 15 ± 1; for `c1ccncc1` [pyridine] + COCC[N+]1(C)CCCC1.O=S(=O)([N-]S(=O)(=O)C(F)(F)F)C(F)(F)F: 0.633 ± 0.044; for `CC1CCCCC1` [methylcyclohexane] + COCC[N+]1(C)CCCC1.O=S(=O)([N-]S(=O)(=O)C(F)(F)F)C(F)(F)F: 12 ± 0.8.
Same read-out and setting: with `C=CCCC` [1-pentene] + COCC[N+]1(C)CCCC1.O=S(=O)([N-]S(=O)(=O)C(F)(F)F)C(F)(F)F the figure was 6.07 ± 0.41.
On to `CCC(=O)CC` [pentan-3-one] + COCC[N+]1(C)CCCC1.O=S(=O)([N-]S(=O)(=O)C(F)(F)F)C(F)(F)F, for which the activity coefficient was determined as 0.905 ± 0.057.
The same measure, in the same setting: with `CC(C)OC(C)C` [diisopropyl ether] + COCC[N+]1(C)CCCC1.O=S(=O)([N-]S(=O)(=O)C(F)(F)F)C(F)(F)F the figure was 6.31 ± 0.43.

The series is the same for the next values; noted with them: 368.15 K; 101 kPa; Liquid; Chromatography; x1 = 0.
As to `O` [water] + COCC[N+]1(C)CCCC1.O=S(=O)([N-]S(=O)(=O)C(F)(F)F)C(F)(F)F, the activity coefficient is 1.85 ± 0.12.
Same read-out and setting: the same measure for `C1CCCCCC1` [cycloheptane] + COCC[N+]1(C)CCCC1.O=S(=O)([N-]S(=O)(=O)C(F)(F)F)C(F)(F)F: 10.8 ± 0.7; for `CCOC(C)(C)C` [2-ethoxy-2-methylpropane] + COCC[N+]1(C)CCCC1.O=S(=O)([N-]S(=O)(=O)C(F)(F)F)C(F)(F)F: 5.85 ± 0.4.
As for `C#CCCCC` [1-hexyne] + COCC[N+]1(C)CCCC1.O=S(=O)([N-]S(=O)(=O)C(F)(F)F)C(F)(F)F, the activity coefficient worked out at 3.27 ± 0.22.
Still for that read-out and setting: with `CCCCCC` [hexane] + COCC[N+]1(C)CCCC1.O=S(=O)([N-]S(=O)(=O)C(F)(F)F)C(F)(F)F the figure was 14.3 ± 1.
Consider `c1ccncc1` [pyridine] + COCC[N+]1(C)CCCC1.O=S(=O)([N-]S(=O)(=O)C(F)(F)F)C(F)(F)F, for which the activity coefficient was found to be 0.639 ± 0.044.
For the compound `CC1CCCCC1` [methylcyclohexane] + COCC[N+]1(C)CCCC1.O=S(=O)([N-]S(=O)(=O)C(F)(F)F)C(F)(F)F, the activity coefficient worked out at 11.2 ± 0.8.
With `C=CCCC` [1-pentene] + COCC[N+]1(C)CCCC1.O=S(=O)([N-]S(=O)(=O)C(F)(F)F)C(F)(F)F, the activity coefficient was determined as 5.91 ± 0.4.
With `CCC(=O)CC` [pentan-3-one] + COCC[N+]1(C)CCCC1.O=S(=O)([N-]S(=O)(=O)C(F)(F)F)C(F)(F)F, the activity coefficient is 0.919 ± 0.058.
On the same count and under the same terms, with `CC(C)OC(C)C` [diisopropyl ether] + COCC[N+]1(C)CCCC1.O=S(=O)([N-]S(=O)(=O)C(F)(F)F)C(F)(F)F the figure was 6.23 ± 0.42.
